Data from US5994342A, “3-(substituted methyl)-4-oxa-1-azabicyclo[3.2.0]heptan-7-one derivatives useful as antitumor agents” (priority 1994, dated 1999).
Converted amounts (≈) assume the structure as drawn. Counter-ions that a name gives are not always drawn.

Legend:
Sarcoma 180 = experiment: In vivo antitumor activity against Sarcoma 180; design: species or system male ICR mice; settings: i.p., days 1, 5 and 9
Experimental: In Vivo Antitumor Activity Against Sarcoma 180
The compounds of general formula (I) were tested in vivo against Sarcoma 180 xenografted tumor to mice as illustrated herein after.
Sarcoma 180, 5×10^6 cells were inoculated by S.C. to male ICR mice (6 week old) on day 0. Drugs were administered on days 1, 5 and 9. Mice were killed and tumor weight was measured on day 12 after transplantation. The percentage inhibition of tumor growth was calculated from the mean tumor weight of the treated group compared with that of the control group. Number of mice used in each group was between 6 to 7.

KB cells = experiment: In vitro KB cell cytotoxicity assay (crystal violet); type: cell-based; settings: Homo sapiens, 72 h, 3 days culture, read-out: KB Cell Cytotoxicity TD50
Experimental: In Vitro KB Cell Cytotoxicity Assay In vitro KB cell cytoxocity assay was done by modification of the crystal violet assay ([…] et al., Anal Biochem., 159, 109-113 (1986). KB cells were cultivated in Eagles minimum essential medium supplemented with 10% calf serum and incubated at 37° C. in a humidified 5% CO2 atmosphere to prepare a cell stock. Cells were counted using a neubauer hemocytometer and seeded in 96 well plates at 100 μl of 3×10^4 cells/ml and cultured for one day. […] Control wells were identical except that test compound was absent. These were cultured for three days. Then the cells were fixed with addition of 20 μl of 25% glutaraldehyde for 15 minutes, washed with water and dried. Then stained with 100 μl of 0.05% crystal violet for 15 minutes, washed with water and dried. The wells are eluted with […] of 0.05M NaH2 PO4 /ethanol (1:1 v/v) and read at OD540 on a multiscan spectrophotometer. Inhibition value of cell growth was calculated based on optical density using the following equation; [formula] TD50 values were calculated from linear regression ines of the log-logit plot.

[1] = Mus musculus, Sarcoma-180, ip, 288 h, 25 mg/kg/day, tumor s.c., tumor weight day 12, read-out: % Inhibition of tumor growth
[2] = Mus musculus, Sarcoma-180, ip, 288 h, 50 mg/kg/day, tumor s.c., tumor weight day 12, read-out: % Inhibition of tumor growth
[3] = Mus musculus, Sarcoma-180, ip, 288 h, 12.5 mg/kg/day, tumor s.c., tumor weight day 12, read-out: % Inhibition of tumor growth
[4] = Mus musculus, Sarcoma-180, ip, 288 h, 100 mg/kg/day, tumor s.c., tumor weight day 12, read-out: % Inhibition of tumor growth

| SMILES | Mortality in 12 days (Sarcoma 180; 40 mg/kg/day) | inhibition in vivo at 40 mg/kg (Sarcoma 180; Mus musculus, Sarcoma-180, ip, 288 h, 40 mg/kg/day, tumor s.c., tumor weight day 12, read-out: % Inhibition of tumor growth) [%] | IC50 (KB cells) [µg/mL] | Mortality in 12 days (Sarcoma 180; 25 mg/kg/day) | Mortality in 12 days (Sarcoma 180; 50 mg/kg/day) | inhibition in vivo at 25 mg/kg (Sarcoma 180; [1]) [%] | inhibition in vivo at 50 mg/kg (Sarcoma 180; [2]) [%] | Mortality in 12 days (Sarcoma 180; 12.5 mg/kg/day) | inhibition in vivo at 12.5 mg/kg (Sarcoma 180; [3]) [%] | Mortality in 12 days (Sarcoma 180; 6.3 mg/kg/day) | inhibition in vivo at 6.3 mg/kg (Sarcoma 180; Mus musculus, Sarcoma-180, ip, 288 h, 6.3 mg/kg/day, tumor s.c., tumor weight day 12, read-out: % Inhibition of tumor growth) [%] | Mortality in 12 days (Sarcoma 180; 100 mg/kg/day) | inhibition in vivo at 100 mg/kg (Sarcoma 180; [4]) [%] |
| --- | --- | --- | --- | --- | --- | --- | --- | --- | --- | --- | --- | --- | --- |
| O=C(Cc1cccs1)NC[C@@H]1CN2C(=O)C[C@H]2O1 (racemic) [Example 31, (3RS,5RS)-3-[N-(Thiophen-2-yl)acetylaminomethyl]-4-oxa-1-azabicyclo[3.2.0]heptan-7-one] | 1/6 | 35.5 | 0.098 (≈ 0.368 µM) |  |  |  |  |  |  |  |  |  |  |
| CC(C)[C@H](N)C(=O)N[C@@H](C)C(=O)OCC1CN2C(=O)CC2O1 (stereo partly drawn) [Example 49B, (3RS,5SR)-3-[L-2-N-(L-2-Amino-3-methylbutyryl)aminopropanoyl]oxymethyl-4-oxa-1-azabicyclo[3.2.0]heptan-7-one hydrochloride] |  |  | 0.537 | 0/6 | 0/6 | 55.7 | 71 |  |  |  |  |  |  |
| C[C@H](N)C(=O)OC[C@H]1CN2C(=O)C[C@@H]2O1.Cl (mixture of isomers) [Example 48B, (3RS,5SR)-3-(L-2-Aminopropanoyl)oxymethyl-4-oxa-1-azabicyclo[3.2.0]heptan-7-one hydrochloride] |  |  | 0.878 | 0/6 | 2/6 | 66.8 | 77.3 | 0/6 | 44.9 |  |  |  |  |
| CC(=O)N[C@@H](CO)C(=O)OCC1CN2C(=O)CC2O1 (stereo partly drawn) [Example 75A, (3RS,5SR)-3-(L-2-Acetamido-3-hydroxypropanoyl)oxymethyl-4-oxa-1-azabicyclo[3.20]heptan-7-one] |  |  | 1.98 (≈ 7.27 µM) | 0/6 |  | 61.9 |  | 0/6 | 42.8 |  |  |  |  |
| NCC(=O)NC[C@@H]1CN2C(=O)C[C@H]2O1 (relative stereo) [Example 43, (3RS,5RS)-3-N-(Aminoacetyl)aminomethyl-4-oxa-1-azabicyclo[3.2.0]heptan-7-one hydrochloride] |  |  | 0.429 | 0/6 | 0/6 | 58.9 | 72.1 | 0/6 | 57 | 0/6 | 48.7 |  |  |
| N[C@@H](CC(=O)O)C(=O)NCC1CN2C(=O)CC2O1 (stereo partly drawn) [Example 67B, (3RS,5RS)-3-N-(L-2-Amino-3-carboxypropanoyl)aminomethyl-4-oxa-1-azabicyclo[3.2.0]heptan-7-one] |  |  | 6.04 (≈ 23.5 µM) |  | 0/6 |  | 41.1 |  |  |  |  | 0/6 | 65.9 |
| C[C@H](N)C(=O)NCC(=O)OC[C@H]1CN2C(=O)C[C@@H]2O1.Cl (mixture of isomers) [Example 41B, (3RS,5SR)-3-[N-(L-2-Aminopropanoyl)aminoacetyl]oxymethyl-4-oxa-1-azabicyclo[3.2.0]heptan-7-one hydrochloride] |  |  | 0.295 | 0/6 |  | 62.8 |  | 0/6 | 43.9 |  |  |  |  |
| CC(C)[C@@H](N)C(=O)N[C@@H](C(=O)OCC1CN2C(=O)CC2O1)C(C)C (stereo partly drawn) [Example 62B, (3RS,5SR)-3-[D-2-N-(D-2-Amino-3-methylbutyryl)amino-3-methylbutyryl]oxymethyl-4-oxa-1-azabicyclo[3.2.0]heptan-7-one hydrochloride] |  |  | 0.381 |  |  |  |  |  |  |  |  | 0/6 | 42.1 |
| N[C@@H](CC(=O)OC[C@H]1CN2C(=O)C[C@@H]2O1)C(=O)O (mixture of isomers) [Example 65B, (3RS,5SR)-3-(L-3-Amino-3-carboxypropanoyl)oxymethyl-4-oxa-1-azabicyclo[3.2.0]heptan-7-one] |  |  | 0.451 |  |  |  |  |  |  |  |  | 0/6 | 55 |
| CC(C)[C@H](N)C(=O)NCC(=O)OC[C@H]1CN2C(=O)C[C@@H]2O1.Cl (mixture of isomers) [Example 42B, (3RS,5SR)-3-[N-(L-2-Amino-3-methylbutyryl)aminoacetyl]oxymethyl-4-oxa-1-azabicyclo[3.2.0]heptan-7-one hydrochloride] |  |  | 0.388 | 0/6 | 0/6 | 69 | 85.8 | 0/6 | 49.9 |  |  |  |  |
| CC(C)[C@H](NC(=O)CN)C(=O)OCC1CN2C(=O)CC2O1 (stereo partly drawn) [Example 55B, (3RS,5SR)-3-[L-2-(N-Aminoacetyl)amino-3-methylbutyryl]oxymethyl-4-oxa-1-azabicyclo[3.2.0]heptan-7-one hydrochloride] |  |  | 0.522 | 0/6 | 0/6 | 47.6 | 74.4 |  |  |  |  |  |  |
| CC(C)[C@H](N)C(=O)N[C@H](C(=O)OCC1CN2C(=O)CC2O1)C(C)C (stereo partly drawn) [Example 56B, (3RS,5SR)-3-[L-2-N-(L-2-Amino-3-methylbutyryl)amino-3-methylbutyryl]oxymethyl-4-oxa-1-azabicyclo-[3.2.0]heptan-7-one hydrochloride] |  |  | 0.283 | 0/6 | 0/6 | 69.2 | 73.2 | 0/6 | 48.9 |  |  |  |  |
| O=C(NCCCC[C@H](NC(=O)OCc1ccccc1)C(=O)OCC1CN2C(=O)CC2O1)OCc1ccccc1 (stereo partly drawn) [Example 77A, (3RS,5SR)-3-(L-2,6-N-Dibenzyloxycarbonylaminohexanoyl)oxymethyl-4-oxa-1-azabicyclo[3.2.0]heptan-7-one] |  |  | 1.18 (≈ 2.19 µM) |  | 0/6 |  | 39.1 |  |  |  |  | 2/6 | 67.3 |
| C[C@@H](NC(=O)Cc1cccs1)C(=O)N[C@H](C)C(=O)OCC1CN2C(=O)CC2O1 (stereo partly drawn) [Example 52, (3RS,5SR)-3-{D-2-N-[D-2-N-(Thiophen-2-yl)acetylaminopropanoyl]aminopropanoyl}oxymethyl-4-oxa-1-azabicyclo[3.2.0]heptan-7-one] |  |  | 0.197 (≈ 0.481 µM) | 0/6 | 0/6 | 45.2 | 63.9 |  |  |  |  | 2/6 | 70.7 |
| O=C(NC[C@@H]1CN2C(=O)C[C@H]2O1)c1ccccc1 (racemic) [Example 23, (3RS,5RS)-3-(N-Benzoylaminomethyl)-4-oxa-1-azabicyclo[3.2.0]heptan-7-one] |  |  | 0.088 (≈ 0.357 µM) |  |  |  |  |  |  |  |  | 0/6 | 27.8 |
| CC(C)[C@H](N)C(=O)N[C@@H](COCc1ccccc1)C(=O)OCC1CN2C(=O)CC2O1 (stereo partly drawn) [Example 74B, (3RS,5SR)-3-[L-2-N-(L-2-N-Amino-3-methylbutyryl)amino-3-benzyloxypropanoyloxymethyl]-4-oxa-1-azabicyclo[3.2.0]heptan-7-one hydrochloride] |  |  | 0.669 |  | 0/6 |  | 49.9 |  |  |  |  | 1/6 | 84.1 |
